Experimental data: patent US20210253518A1, “KINASE INHIBITOR” (NISSAN CHEMICAL CORPORATION, priority 2018, published 2021)

Columns and labels:
[1] = test system: YAP, phosphorylated YAP (Ser127), TAZ; experiment: Western blotting of YAP, phosphorylated YAP, TAZ in SKOV3 cells (2D and 3D culture); format: cell-based, human; settings: 1, 5, 10 μM, 1 hr, both 2D culture and 3D culture, FIG. 1
Experimental: 2D culture conditions: Human ovarian cancer cell line SKOV3 cultured according to the protocol recommended by DS Pharma Biomedical Co., Ltd. was suspended in McCoy's 5a medium (manufactured by Sigma-Aldrich) containing 15% (v/v) FBS and seeded on a 100 mm plate (manufactured by Corning Incorporated, #430167) at 1,000,000 cells/10 mL and cultured in a CO2 incubator for 24 hr. Successively, k-1:B-1 dissolved in DMSO was added to the culture medium at a final concentration of 1, 5, 10 μM. As the control, the medium without addition and the medium added with DMSO were cultured. After 1 hr, the cells were washed 3 times with ice-cooled phosphate buffered saline (PBS, manufactured by Wako Pure Chemical Industries, Ltd.), 250 μL of RIPA Buffer (manufactured by Wako Pure Chemical Industries, Ltd.) containing a protease inhibitor cocktail (manufactured by Roche) was added, and the cells were lysed with a scraper. […] The supernatant was dispensed, the protein concentration was measured using BCA protein assay kit (manufactured by PIERCE), and then SDS (sodium dodecyl sulfate) gel electrophoresis was performed on the lysate. […] After incubation with a secondary antibody (manufactured by Horseradish peroxidase) linked with an anti-rabbit HRP (horseradish peroxidase) or an anti-mouse HRP, the protein was detected by a chemiluminescence detector (manufactured by BioRad) using ImmunoStar Zeta (manufactured by Wako Pure Chemical Industries, Ltd.).
3D culture conditions: According to the method of patent document (WO 2014/017513), a composition of McCoy's 5a medium (manufactured by Sigma-Aldrich) containing 0.015% (w/v) deacylated gellan gum (KELCOGEL CG-LA, manufactured by Sansho Co., Ltd.), 30 ng/mL human HB-EGF (manufactured by PEPROTECH), and 15% (v/v) FBS was prepared. […] The supernatant was dispensed, the protein concentration was measured using BCA protein assay kit (manufactured by PIERCE), and then SDS gel electrophoresis was performed on the lysate. […]

[2] = test system: colitis model administered with dextran sulfate sodium (DSS); experiment: DSS colitis model mouse, length of the large intestine; format: in vivo; settings: 2.5 w/v % DSS drinking water, 50 mg/kg intraperitoneally every 24 hr, day 8, vs 0.5% MC, FIG. 3
Experimental: Colitis model administered with dextran sulfate sodium (DSS) (manufactured by FUJIFILM Wako Pure Chemical Corporation) was produced as described below. The length of the large intestine is used as a morphological parameter in the evaluation of colitis, and the large intestine shortens according to the degree of inflammation. Therefore, the anti-inflammatory effect of the compound was evaluated by comparing the length of the large intestine.
Compound K-1:J-1 was prepared as a 0.5 w/v % methylcellulose aqueous solution (0.5% MC, manufactured by FUJIFILM Wako Pure Chemical Corporation) at 5 mg/mL and intraperitoneally administered at 50 mg/kg per administration. 0.5% MC was administered to the negative control.
As the mouse, male C57BL/6NCrl, 6-week-old, was purchased from CHARLES RIVER LABORATORIES JAPAN, INC. As drinking water, distilled water or a 2.5 w/v % DSS aqueous solution was freely given. The DSS drinking start date was set as day 1, and the water was given until day 8. Compound K-1:J-1 was intraperitoneally administered at 50 mg/kg every 24 hr from day 1. On day 8, the mouse was dissected, the large intestine was isolated and the length of the large intestine was measured. Conducted in 4 cases in each group.

[3] = test system: full-thickness skin wound; experiment: Mouse full-thickness skin wound model; format: in vivo; settings: 1 mg/mL, 0.04 mL per wound site every 24 hr until day 12, negative control 854.2±119.2
Experimental: A full-thickness skin wound in which the skin on the back of a mouse was partially removed was prepared as described below, and the wound therapy promoting effect of the compound was evaluated by comparing the reduction rate of the wound area.
Compound K-1:J-1 was dissolved in a solvent (10% Pluronic F-68, 2% Propylene Glycol, 20 mM Tris buffer (pH 8.5)) at a concentration of 1 mg/mL, and administered by adding dropwise to the wound site (0.04 mL per one wound site). To the negative control, the solvent alone was administered by dropwise addition.
As the mouse, male BKS.Cg-Dock7m+/+Leprdb/J, 7-week-old, was purchased from CHARLES RIVER LABORATORIES JAPAN, INC. After removing the hair on the back, an 8 mm full-thickness skin wound was prepared using biopsy trepan (Kai Corporation) and protected with a coating material (Tegaderm transparent dressing, 3M). The wound preparation date was set as day 1, and 1 mg/mL compound K-1:J-1 was added dropwise at a dose of 0.04 mL per wound site every 24 hr until day 12. The area of the wound site was measured on days 1, 3, 6, 9, 13. The wound area on day 1 was set to 100%, and the total measured area was calculated as a percentage (%) with respect to the wound preparation date. Conducted in 6 cases in each group.

## CC/C(=N\NC(=O)C(C)Nc1ccccc1)c1ccc(O)c(C)c1O (centres unmarked) [k-1:B-1]
[1]
  phosphorylation of YAP: suppressed
  total TAZ protein amount in the cell: increased
  total YAP protein amount in the cell: increased

## CC/C(=N\NC(=O)NCc1cccc(O)c1)c1ccc(O)c(C)c1O [k-1:J-1]
[2]
  length of the large intestine: shortening of the large intestine was suppressed more
[3]
  area under the wound area ratio (Area Under the Curve (AUC)): 659.6±163.7 %×day
